Source: patent US20030207812A1, “Cd45 inhibitors” (priority 2002, published 2003)
pIC50: −log10 of the molar value. Read-outs that look alike come from different tables or passages of the source. Where a SMILES comes first, the peptide text is derived from it. The star is where a group is joined. Phenanthrenequinone2carbonyl = O=C1C(=O)c2cc(C(=O)*)ccc2-c2ccccc21; 3Phenanthroyl(9,10-dioxo) = O=C1C(=O)c2ccc(C(=O)*)cc2-c2ccccc21

Key:
in vitro = conditions: human
Experimental: (§1) Calcein-AM (Molecular Probes. Eugene, Oreg.) uptake, as a quantitative measure of cell viability, was used to evaluate the toxic effect of compounds on T cells.
(§2) The T-cell lymphoblasts were purified by separation over Lymphoprep, plated at 2×10^5/well in a round bottom 96-well plate containing RPMI with compound and incubated overnight at 37° C. in an incubator containing 5% CO2. The dilution scheme and culture media were the same as those used in the T-cell proliferation assay. After the incubation period, cells were washed with Dulbecco's phosphate-buffered saline (D-PBS) and incubated with 1 μM Calcein-AM for 30-45 mim in D-PBS as described in the technical sheet provided with The LIVE/DEAD Viability/Cytotoxicity Kit from Molecular Probes.

CD45 [1] = biological target: T1, CD45 (Homo sapiens, UniProt P08575); experiment: Phosphatase assay using lck 10-mer as substrate; type: biochemical
T1 construct: incubating the cytosolic portion of CD45 with the compounds and p-nitrophenyl phosphate (pNPP); purchased BIOMOL (Plymouth Meeting, Pa.)
T1 sequence (P08575 599-1306 limits assumed): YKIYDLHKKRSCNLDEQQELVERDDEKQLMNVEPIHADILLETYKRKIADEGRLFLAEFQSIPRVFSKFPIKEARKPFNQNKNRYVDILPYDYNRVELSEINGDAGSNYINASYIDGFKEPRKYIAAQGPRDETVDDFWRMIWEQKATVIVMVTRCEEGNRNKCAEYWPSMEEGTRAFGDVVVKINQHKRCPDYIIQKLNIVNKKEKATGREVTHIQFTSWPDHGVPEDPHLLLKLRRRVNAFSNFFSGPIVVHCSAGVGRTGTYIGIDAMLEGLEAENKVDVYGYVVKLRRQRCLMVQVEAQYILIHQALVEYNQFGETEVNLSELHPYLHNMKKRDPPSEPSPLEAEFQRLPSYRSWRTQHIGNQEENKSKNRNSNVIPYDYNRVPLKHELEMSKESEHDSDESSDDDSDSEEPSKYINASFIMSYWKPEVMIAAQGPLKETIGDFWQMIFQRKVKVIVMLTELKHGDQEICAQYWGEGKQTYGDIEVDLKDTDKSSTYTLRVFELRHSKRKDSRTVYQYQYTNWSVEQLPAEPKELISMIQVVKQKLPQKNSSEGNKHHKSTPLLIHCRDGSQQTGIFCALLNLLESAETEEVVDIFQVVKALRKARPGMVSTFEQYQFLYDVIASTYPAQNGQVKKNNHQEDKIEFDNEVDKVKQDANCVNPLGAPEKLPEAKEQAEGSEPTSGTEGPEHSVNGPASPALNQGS
Experimental: Phosphatase assay using lck 10-mer as substrate:
Phosphatase activity was assayed in 96 well plates in a buffer containing final concentrations of 25 mM HEPES at pH 7.2, 5 mM DTT and 10 μg/mL BSA using the lck carboxy-terminal peptide TEGQpYQPQP as the substrate (Cho, H., Krishnaraj, R., Itoh, M., Kitas, E., Bannwarth, W., Saito, H., Walsh, C. T. 1993. Substrate specificities of catalytic fragments of protein tyrosine phosphatases (HPTPb, LAR, and CD45) toward the phosphotyrosylpeptide substrates and thiophosphotyrosylated peptides as inhibitors. Protein Science 2:977-984). Compounds were tested in a range from 30 to 0.01 μM in a final concentration of 5% DMSO. Enzyme was incubated with substrate with or without compound, at room temperature for 1.5 h. At the end of the incubation period, BIOMOL “Green Reagent” (BIOMOL, Plymouth Meeting, Pa.) was added to each well, the plates incubated at room temperature for 30 min and absorbance read at 620 nm.

CD45 [2] = biological target: T1, CD45; experiment: Phosphatase assay using pNPP as substrate; type: biochemical
Experimental: Phosphatase assay using pNPP as substrate:
CD45 enzyme was obtained from BIOMOL (Plymouth Meeting, Pa.). Phosphatase activity was assayed in a buffer containing final concentrations of 25 mM imidazole at pH 7.0, 50 mM NaCl, 2.5 mM ethylenediaminetetraacetic acid (“EDTA”), 5 mM dithiothreitol (“DTT”) and 10 μg/mL bovine serum albumin (“BSA”) using pNPP as a substrate.

T cells (PBMC) = experiment: cells; type: cell-based, human; conditions: read-out: T cell prolif. IC50
Experimental: Cell isolation and T cell proliferation assay:
Whole blood was obtained from healthy human blood donors. Peripheral blood mononuclear cells (“PBMC”) were isolated using Lymphoprep density-gradient centrifugation (Nycomed Amersham, Oslo, Norway), washed, counted and resuspended at 2×10^6 cells/mL in RPMI 1640 medium containing glutamine, 0.1 mg/mL gentamycin and 10% heat inactivated human serum. PBMC were transferred to 96-well plates (2×10^5 cells/well) containing compound or vehicle control, with the final concentration of DMSO not to exceed 0.3%, and incubated for 1 hour before addition of the activating anti-CD3 antibody, OKT3 (30ng/mL). After 24 hours in culture, the cells were pulsed with [^3H]thymidine (1 μCi/well) overnight and harvested the next day onto 96-well Packard GF/C filter plates using a Packard Cell Harvester (Packard Instruments, Meriden, Conn.). The filter plate was dried, the bottom of the plate sealed, 25 μL of Microscint 20 scintillation fluid added to each well, the top of the plate sealed with TopSeal-A, and the plate counted on a Packard TopCount. The data from the TopCount is transferred into Excel 5 (Microsoft, Redmond, Wash.) and formatted for EC50 determination using Prism software (GraphPad Software, San Diego, Calif.).

[3] = Cytotoxicity assay (Calcein-AM uptake); conditions: human, PHA-expanded T-cell lymphoblasts from PBMC
Experimental: as §1, §2

[4] = CD45 phosphatase, lck carboxy-terminal peptide TEGQpYQPQP substrate, pH 7.2, read-out: Ick IC50
[5] = human PBMC, OKT3 30 ng/mL, [3H]thymidine
[6] = CD45 phosphatase, pNPP substrate, pH 7.0, read-out: pNPP IC50

Row | Compound | CC50 (in vitro) | pIC50 (CD45 [1]) | pIC50 (CD45 [2]; pH 7, read-out: pNPP IC50) | pIC50 (CD45 [1]; [4]) | pIC50 (CD45 [2]) | pIC50 (T cells (PBMC); [5]) | CC50 [3] | pIC50 (CD45 [2]; [6]) | pIC50 (T cells (PBMC); Homo sapiens)
1 | N=C(N)NCCC[C@H](NC(=O)CNC(=O)c1ccc2c(c1)C(=O)C(=O)c1ccccc1-2)C(=O)N1CCC[C@H]1C(=O)N[C@@H](CCC(=O)O)C(=O)NCC(=O)O [Example 46] (Phenanthrenequinone2carbonyl-GRPEG-OH) | > 30 µM | 5.42 | 6.00 | – | – | – | – | – | –
2 | NC(=O)CC[C@H](NC(=O)[C@@H]1CCCN1C(=O)[C@H](CCC(N)=O)NC(=O)CNC(=O)c1ccc2c(c1)-c1ccccc1C(=O)C2=O)C(=O)NCC(=O)O [Example 36] ({3Phenanthroyl(9,10-dioxo)}-GQPQG-OH) | > 30 µM | – | – | 5.66 | 6.00 | – | – | – | –
3 | N=C(N)NCCC[C@H](NC(=O)[C@@H]1CCCN1C(=O)[C@H](CCCNC(=N)N)NC(=O)[C@H](CCC(=O)O)NC(=O)c1ccc2c(c1)C(=O)C(=O)c1ccccc1-2)C(=O)NCC(=O)O [Example 56] (Phenanthrenequinone2carbonyl-ERPRG-OH) | > 30 µM | 5.64 | 6.10 | – | – | – | – | – | –
4 | NC(=O)CC[C@H](NC(=O)[C@@H]1CCCN1C(=O)[C@H](CCC(=O)O)NC(=O)CNC(=O)c1ccc2c(c1)-c1ccccc1C(=O)C2=O)C(=O)N1CCC[C@H]1C(=O)O [Example 27] ({3Phenanthroyl(9,10-dioxo)}-GEPQP-OH) | > 30 µM | 5.51 | 6.15 | – | – | – | – | – | –
5 | N=C(N)NCCC[C@H](NC(=O)[C@@H]1CCCN1C(=O)[C@H](CCC(=O)O)NC(=O)CNC(=O)c1ccc2c(c1)C(=O)C(=O)c1ccccc1-2)C(=O)NCC(=O)O [Example 52] (Phenanthrenequinone2carbonyl-GEPRG-OH) | > 30 µM | 5.52 | 6.10 | – | – | – | – | – | –
6 | N=C(N)NCCC[C@H](NC(=O)c1ccc2c(c1)C(=O)C(=O)c1ccccc1-2)C(=O)N[C@@H](CCCNC(=N)N)C(=O)N1CCC[C@H]1C(=O)N[C@@H](CCC(=O)O)C(=O)NCC(=O)O [Example 48] (Phenanthrenequinone2carbonyl-RRPEG-OH) | > 30 µM | 5.24 | 6.22 | – | – | – | – | – | –
7 | NC(=O)CC[C@H](NC(=O)c1ccc2c(c1)-c1ccccc1C(=O)C2=O)C(=O)N[C@@H](CCC(N)=O)C(=O)N1CCC[C@H]1C(=O)N[C@@H](CCC(N)=O)C(=O)NCC(=O)O [Example 37] ({3Phenanthroyl(9,10-dioxo)}-QQPQG-OH) | > 30 µM | – | – | 5.68 | 5.96 | – | – | – | –
8 | COC(=O)CCCC(=O)Nc1ccc2c(c1)-c1ccccc1C(=O)C2=O [Example 77, 4-(9,10-Dioxo-9,10-dihydro-phenanthren-3-ylcarbamoyl)-butyric Acid Methyl Ester] | – | – | – | 5.54 | – | 5.80 | 9 µM | 6.10 | –
9 | CC(C)(C)C(=O)Nc1ccc2c(c1)-c1ccccc1C(=O)C2=O [Example 10, N-(9,10-Dioxo-9,10-dihydro-phenenathren-3-yl)-2,2-dimethyl-propionamide] | – | – | – | 5.31 | – | 6.15 | 10 µM | 5.92 | –
10 | O=C(COCc1ccccc1)Nc1ccc2c(c1)C(=O)C(=O)c1ccccc1-2 [Example 2, 2-Benzyloxy-N-(9,10-dioxo-9,10-dihydro-phenanthren-2-yl)-acetamide] | – | – | – | 4.96 | – | 6.00 | 14 µM | 6.30 | –
11 | O=C1C(=O)c2cc([N+](=O)[O-])ccc2-c2ccc([N+](=O)[O-])cc21 [Example 94, 2,7-Dinitro-phenanthrene-9,10-dione] | – | – | – | 5.30 | – | – | 8 µM | 5.39 | 6.30
12 | O=C(O)c1ccc2c(c1)C(=O)C(=O)c1ccccc1-2 [Example 97, 9,10-Dioxo-9,10-dihydro-phenanthrene-2-carboxylic Acid] | – | – | – | 5.48 | – | < 4.52 | > 30 µM | 6.00 | –
13 | O=C1C(=O)c2cc(NC(=O)c3ccccc3C(F)(F)F)ccc2-c2ccccc21 [Example 8, N-(9,10-Dioxo-9,10-dihydro-phenanthren-2-yl)-2-trifluoromethyl-benzamide] | – | – | – | 4.82 | – | 5.85 | 12 µM | 6.40 | –
14 | Cc1ccc(S(=O)(=O)Nc2ccc3c(c2)C(=O)C(=O)c2ccccc2-3)cc1 [Example 15, N-(9,10-Dioxo-9,10-dihydro-phenanthren-2-yl)-4-methyl-benzenesulfonamide] | – | – | – | 4.82 | – | 5.19 | > 30 µM | 6.00 | –
15 | COC(=O)CCCCCCCCC(=O)Nc1ccc2c(c1)C(=O)C(=O)c1cccc(NC(=O)CCCCCCCCC(=O)OC)c1-2 [Example 76, 9-[5-(9-Methoxycarbonyl-nonanoylamino)-9,10-dioxo-9,10-dihydro-phenanthren-2-ylcarbamoyl]-nonanoic Acid Methyl Ester] | – | – | – | < 4.52 | – | 5.15 | > 30 µM | 5.03 | –
16 | O=C1C(=O)c2cc(NC(=O)c3ccccc3[N+](=O)[O-])ccc2-c2ccccc21 [Example 5, N-(9,10-Dioxo-9,10-dihydro-phenanthren-2-yl)-2-nitro-benzamide] | – | – | – | 4.92 | – | 6.00 | 8.2 µM | 6.52 | –
17 | COC(=O)CCC(=O)Nc1ccc2c(c1)C(=O)C(=O)c1cccc(NC(=O)CCC(=O)OC)c1-2 [Example 73, N-[5-(3-Methoxycarbonyl-propionylamino)-9,10-dioxo-9,10-dihydro-phenanthren-2-yl]-succinamic Acid Methyl Ester] | – | – | – | 5.52 | – | 5.30 | 11 µM | 6.30 | –
18 | COC(=O)CCCCCCCCC(=O)Nc1cccc2c1-c1ccccc1C(=O)C2=O [Example 69, 9-(9,10-Dioxo-9,10-dihydro-phenanthren-4-ylcarbamoyl)-nonanoic Acid Methyl Ester] | – | – | – | 5.32 | – | 5.34 | 14 µM | 6.22 | –
19 | O=C1C(=O)c2cc(-c3ccsc3)ccc2-c2ccccc21 [Example 17, 2-Thiophen-3-yl-phenanthrene-9,10-dione] | – | – | – | < 4.52 | – | 5.74 | 7.3 µM | 6.10 | –
20 | CC(C)CNC(=O)[C@H](CCC(N)=O)NC(=O)CNC(=O)c1ccc2c(c1)-c1ccccc1C(=O)C2=O [Example 23] | – | – | – | 5.52 | – | 4.70 | > 30 µM | 5.96 | –
21 | Nc1cccc2c1-c1ccccc1C(=O)C2=O [Example 89, 4-Amino-phenanthrene-9,10-dione] | – | – | – | 5.54 | – | 6.70 | 9 µM | 6.10 | –
22 | COC(=O)CCC(=O)Nc1ccc2c(c1)C(=O)C(=O)c1ccccc1-2 [Example 80, N-(9,10-Dioxo-9,10-dihydro-phenanthren-2-yl)-succinamic Acid Methyl Ester] | – | – | – | 5.31 | – | 6.15 | 6.5 µM | 5.23 | –
